Biological target: T1, akuBGL (110 kDa β-glucosidase) (Aplysia kurodai, UniProt A0A1V1FXL2)
T1 construct: gene ApBGL; native, purified from digestive fluid; signal peptide M1-D25 removed; 110 kDa; two GH1 domains (L26-T494, D513-P978); N-glycosylated at N113, N212, N645; precursor ends at M994
Assay: HPLC or absorbance at […] nm of o-nitrophenol
Type: biochemical
Details: 2.5 mM ONPG, 49 nM akuBGL, pH 5.5, 100 mM NaCl, 10 mM CaCl2, 37 °C, 10 min

T1 sequence (A0A1V1FXL2 entry or part of it): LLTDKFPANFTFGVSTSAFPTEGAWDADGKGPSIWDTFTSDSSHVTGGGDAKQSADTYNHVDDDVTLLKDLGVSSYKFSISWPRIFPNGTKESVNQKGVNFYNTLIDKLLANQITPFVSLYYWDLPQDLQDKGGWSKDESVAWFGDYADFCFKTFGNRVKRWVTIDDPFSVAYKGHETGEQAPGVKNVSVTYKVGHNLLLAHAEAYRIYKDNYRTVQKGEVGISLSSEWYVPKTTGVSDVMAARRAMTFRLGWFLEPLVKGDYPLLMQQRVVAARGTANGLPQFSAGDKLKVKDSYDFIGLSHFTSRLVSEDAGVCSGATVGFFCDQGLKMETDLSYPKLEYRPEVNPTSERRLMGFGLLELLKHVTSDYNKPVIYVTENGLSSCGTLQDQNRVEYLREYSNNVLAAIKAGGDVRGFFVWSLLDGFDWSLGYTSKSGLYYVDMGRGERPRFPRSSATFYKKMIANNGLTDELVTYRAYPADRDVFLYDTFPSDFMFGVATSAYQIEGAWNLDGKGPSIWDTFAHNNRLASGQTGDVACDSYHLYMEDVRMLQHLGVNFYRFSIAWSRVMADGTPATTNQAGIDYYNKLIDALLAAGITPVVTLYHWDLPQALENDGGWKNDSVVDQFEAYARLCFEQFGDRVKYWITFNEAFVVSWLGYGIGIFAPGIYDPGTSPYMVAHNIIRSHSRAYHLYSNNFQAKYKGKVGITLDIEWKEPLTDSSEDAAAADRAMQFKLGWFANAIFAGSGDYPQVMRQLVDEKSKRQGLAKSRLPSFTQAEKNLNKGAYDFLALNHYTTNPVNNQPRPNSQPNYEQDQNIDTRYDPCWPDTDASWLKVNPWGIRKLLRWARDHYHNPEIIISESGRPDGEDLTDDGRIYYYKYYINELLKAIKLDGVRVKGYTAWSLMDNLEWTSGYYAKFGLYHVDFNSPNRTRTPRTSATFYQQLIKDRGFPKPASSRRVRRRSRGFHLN

## O=[N+]([O-])c1ccccc1O[C@@H]1O[C@H](CO)[C@H](O)[C@H](O)[C@H]1O [ortho-nitrophenyl-β-galactoside]
  HPLC or absorbance at 420 nm of o-nitrophenol: Ortho-nitrophenyl-β-galactoside (ONPG) was used as a substrate to measure akuBGL activity
